The values that follow come from patent US11369665B2, “Anti-inflammatory peptides and composition comprising the same” (GemVax & KAEL Co., Ltd., priority 2012, dated 2022).

The subject of one test is HMGB1, TNF-α and COX. In words: Western blot of pro-inflammatory cytokine expression. The conditions noted are these: cells treated with both LPS and PEP-1. Format: cell-based. The protocol: (§1) Raw 264.7 macrophage cell (KCBL, 40071) from Korea Cell Bank was maintained in Dulbecco's modified Eagle's medium (DMEM; PAA, Austria) containing 10% fetal bovine serum (FBS; GIBCO®), 100 unit/mL of streptomycin, and penicillin (Gibco Laboratories) at 37° C. with 5% CO2. Raw 264.7 cells were seeded into a 96-well plate at a density of 1×10^6 cells/mL and incubated overnight.
(§2) On the following day, the medium was replaced with fresh medium and 5 μg/mL of peptide (obtained as described in Experiment example 1) was added to the cells. After 30 min incubation of cells with the peptide 50 μL of LPS (to a final concentration of 1 μg/mL) was added, and cells were incubated for additional 24 hr. The experimental sample with the induction of inflammatory response was treated with 1 μg/mL mL lipopolysaccharide (LPS; SIGMA-ALDRICH®, USA) and control sample was treated with phosphate buffered saline (PBS; pH 7.2). The supernatant samples from each condition was collected in eppendorf tubes and subjected to further analysis.
Protein expression level was determined by Western blot analysis. […] The membrane was incubated with ECL (enhanced chemiluminoesence) solution ([…]®), exposed to X-ray, and the level of protein expression was analyzed according to the exposure level shown on the X-ray film. […]
Background: Immunoblotting shows a protein as a band on a membrane.

Another test concerns neural stem cells. Nature of the test: Co-treatment amyloid-β and PEP-1: apoptosis (TUNEL assay). Format: cell-based, rat. The conditions noted are these: 20 μM amyloid-β protein, 1 to 100 μM of PEP 1. The protocol:
To determine whether PEP 1 has the effect of suppressing the neurotoxicity caused by amyloid-β protein, 20 μM amyloid-β protein and various concentrations of PEP-1 were co-treated for 48 hours. The cell viability and apoptosis were measured using MMT assay, CCK-8 assay, LDH assay and TUNEL assay, and neural stem cell proliferation by BrdU assay.
To confirm the degree of neuronal stem cells damage, TUNEL assay was performed. […] (Refer to FIG. 12)

Test [1] relates to Bax, GSKβ, Cytochrom-c, caspase-3. In words: Western blot of apoptotic signals in amyloid-β damaged neural stem cells. The conditions noted are these: 20 μM amyloid beta, PEP-1 1, 10 and 50 μM, FIGS. 15D, 15G-15I. Format: cell-based, rat.
The subject of a further test is TNF-α. In words: Western blot of expression level, LPS-stimulated cells. It counts as cell-based. The settings on record: LPS 1 μg/ml, PEP 1 5 μg/ml. The procedure: as §1, §2
(§3) Protein expression level was determined by Western blot analysis. Cells grown in PEP-1 containing medium were washed with PBS, treated with 0.05% trypsin-EDTA, and collected by centrifugation. The collected cells were dissolved in an appropriate volume of lysis buffer. Intracellular debris was pelleted by centrifugation, and equal amount of protein from each sample was separated by SDS-polyacrylamide gel electrophoresis. The separated protein was transferred to nitrocellulose membrane (Schleicherand Schuell, Keene, N.H., USA), then was tested for the antibody specific for each protein. The membrane was incubated with ECL (enhanced chemiluminoesence) solution ([…]®), exposed to X-ray, and the level of protein expression was analyzed according to the exposure level shown on the X-ray film.

The subject of another test is HMGB1. The test is described as above. Format: cell-based. The settings on record: LPS 1 μg/ml, PEP 1 5 μg/ml. The procedure:
as §1, §2, §3

Another test has as its system COX-2. The description is as above. The settings on record: LPS 1 μg/ml, PEP 1 5 μg/ml. Format: cell-based. The protocol:
as §1, §2, §3

As to EARPALLTSRLRFIPK [PEP-1], the “decrease of pro-inflammatory cytokine levels” value in the test with HMGB1, TNF-α and COX was “more than 70%”. In the test on neural stem cells, the “neuronal stem cell death (TUNEL)” value was “decreased”. Also, the “protein expression levels of apoptotic signals Bax, GSKβ, Cytochrom-c, caspase-3” value in test [1] is listed as “decreased the protein expression levels”. In addition, the “TNF-α Cytokine Expression Level (band intensity) % of control” value in the test with TNF-α is 25%. For the same sequence, the “HMGB1 Cytokine Expression Level (band intensity) % of control” value with HMGB1 was determined as 30%. Further, the “COX-2 Cytokine Expression Level (band intensity) % of control” value with COX-2 is reported as 22%.
